Experimental data: patent publication US20240262826A1, “WILD TYPE KIT INHIBITORS” (Blueprint Medicines Corporation, priority 2022, published 2024)
pIC50: −log10 of the molar value.

Assays:
[1] = molecular target: human P-glycoprotein (P-gp, MDR1) (Homo sapiens (Human), UniProt P08183); test: MDCK-MDR1 cell monolayer drug transport assay (P-gp efflux ratio); assay type: in vitro ADME; settings: pH 7.4, MDCK-MDR1 cells, 1 uM concentration of compound, read-out: Pgp Efflux Ratio, 1 uM
Method in brief: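 P-gp substrate potential tested in MDCK-MDR1 monolayers on Transwell supports, cultured 4-8 days; monolayers with TEER <42 ohms·cm2 discarded. Transport run in HBSS (10 mM HEPES, pH 7.4) at 37° C with compound working solution at 1 μM.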

[2] = molecular target: wild type c-kit (Homo sapiens (Human), UniProt P10721); test: PathScan phospho c-kit (Tyr719) sandwich ELISA in SCF-stimulated M-07e cells (pKIT assay); assay type: cell-based; settings: ELISA assay (values not marked *)
Method in brief: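 Tyr719-phosphorylated c-kit was measured by colorimetric (TMB) sandwich ELISA in lysates of M-07e cells. Cells were starved 4 h without serum or GM-CSF, dosed 60 min at 37 °C with compound (8 points, duplicate, 0.25% DMSO), and stimulated 10 min with human SCF (500 ng/mL as added). IC50 values came from 4-parameter logistic regression.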

wild type c-kit, sequence (P10721 26-976): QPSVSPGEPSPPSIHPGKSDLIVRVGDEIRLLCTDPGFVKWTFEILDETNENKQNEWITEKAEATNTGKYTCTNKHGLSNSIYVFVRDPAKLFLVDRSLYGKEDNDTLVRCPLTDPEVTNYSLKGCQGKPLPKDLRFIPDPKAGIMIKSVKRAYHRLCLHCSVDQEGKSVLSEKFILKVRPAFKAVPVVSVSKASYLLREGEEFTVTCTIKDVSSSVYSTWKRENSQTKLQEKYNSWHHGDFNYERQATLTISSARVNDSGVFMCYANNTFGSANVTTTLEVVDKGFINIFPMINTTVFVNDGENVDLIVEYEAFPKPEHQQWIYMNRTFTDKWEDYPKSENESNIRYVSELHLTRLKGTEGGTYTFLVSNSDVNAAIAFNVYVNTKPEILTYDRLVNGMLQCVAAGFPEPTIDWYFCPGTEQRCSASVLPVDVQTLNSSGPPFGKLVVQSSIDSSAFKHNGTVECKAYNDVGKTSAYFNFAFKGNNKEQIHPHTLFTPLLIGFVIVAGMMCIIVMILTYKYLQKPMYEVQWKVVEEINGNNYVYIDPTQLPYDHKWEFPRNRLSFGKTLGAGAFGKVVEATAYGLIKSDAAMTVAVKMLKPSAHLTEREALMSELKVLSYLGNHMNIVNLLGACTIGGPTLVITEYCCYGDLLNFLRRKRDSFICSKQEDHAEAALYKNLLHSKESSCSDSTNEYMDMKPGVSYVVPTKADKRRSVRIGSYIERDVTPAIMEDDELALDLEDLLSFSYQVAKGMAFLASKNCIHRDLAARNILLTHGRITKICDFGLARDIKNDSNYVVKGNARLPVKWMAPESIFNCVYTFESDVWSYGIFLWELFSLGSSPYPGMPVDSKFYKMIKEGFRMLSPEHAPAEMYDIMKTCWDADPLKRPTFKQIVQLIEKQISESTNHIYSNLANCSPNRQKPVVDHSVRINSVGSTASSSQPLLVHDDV
human P-glycoprotein (P-gp, MDR1), sequence (P08183 whole entry): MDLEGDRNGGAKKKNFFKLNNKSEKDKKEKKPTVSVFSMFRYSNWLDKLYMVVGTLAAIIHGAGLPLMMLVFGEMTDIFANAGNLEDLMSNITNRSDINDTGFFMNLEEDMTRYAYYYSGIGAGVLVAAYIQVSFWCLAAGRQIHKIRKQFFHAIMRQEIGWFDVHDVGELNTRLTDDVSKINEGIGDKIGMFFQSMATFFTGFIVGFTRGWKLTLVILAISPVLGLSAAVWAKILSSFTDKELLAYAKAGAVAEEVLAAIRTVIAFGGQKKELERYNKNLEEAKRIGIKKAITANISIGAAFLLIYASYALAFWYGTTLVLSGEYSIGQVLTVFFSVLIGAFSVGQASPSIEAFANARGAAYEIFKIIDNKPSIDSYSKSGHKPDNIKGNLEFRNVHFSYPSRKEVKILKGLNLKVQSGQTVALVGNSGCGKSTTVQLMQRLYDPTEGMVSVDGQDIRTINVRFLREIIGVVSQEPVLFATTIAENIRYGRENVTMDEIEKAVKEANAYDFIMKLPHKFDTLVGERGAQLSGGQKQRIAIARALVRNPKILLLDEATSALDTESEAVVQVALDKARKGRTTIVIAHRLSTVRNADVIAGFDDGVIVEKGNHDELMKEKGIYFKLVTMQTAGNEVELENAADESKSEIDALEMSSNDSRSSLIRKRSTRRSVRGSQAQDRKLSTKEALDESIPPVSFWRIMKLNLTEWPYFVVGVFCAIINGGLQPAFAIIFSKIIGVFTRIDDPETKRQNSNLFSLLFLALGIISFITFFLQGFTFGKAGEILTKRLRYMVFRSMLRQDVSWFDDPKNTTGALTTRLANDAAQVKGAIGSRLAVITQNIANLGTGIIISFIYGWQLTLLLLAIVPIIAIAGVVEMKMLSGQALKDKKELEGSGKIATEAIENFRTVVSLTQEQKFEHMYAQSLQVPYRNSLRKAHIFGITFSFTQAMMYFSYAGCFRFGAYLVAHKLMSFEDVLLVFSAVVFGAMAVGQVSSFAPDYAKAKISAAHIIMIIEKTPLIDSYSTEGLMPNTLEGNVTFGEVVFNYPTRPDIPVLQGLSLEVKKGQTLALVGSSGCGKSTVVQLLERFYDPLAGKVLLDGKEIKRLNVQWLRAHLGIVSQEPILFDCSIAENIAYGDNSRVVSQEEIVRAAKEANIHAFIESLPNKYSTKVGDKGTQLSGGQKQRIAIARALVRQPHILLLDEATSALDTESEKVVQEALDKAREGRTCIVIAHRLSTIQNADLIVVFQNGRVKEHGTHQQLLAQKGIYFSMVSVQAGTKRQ

Row | efflux ratio at 2 h, 1 µM [1] | pIC50 [2] | Structure (SMILES)
1 | 8.7 | 7.75 | COCCNc1ccn2ncc(C(=O)Nc3cc(-n4ncc(C5CN(C(=O)OC)C5)n4)ccc3C)c2c1 [Example 110, methyl 3-(2-(3-(5-((2-methoxyethyl)amino)pyrazolo[1,5-a]pyridine-3-carboxamido)-4-methylphenyl)-2H-1,2,3-triazol-4-yl)azetidine-1-carboxylate]
2 | 15.7 | 7.36 | COC(=O)N1CC(c2nnn(-c3ccc(C)c(NC(=O)c4cnn5ccc(N6CCN(C)CC6)cc45)c3)n2)C1 [Example 112, methyl 3-(2-(4-methyl-3-(5-(4-methylpiperazin-1-yl)pyrazolo[1,5-a]pyridine-3-carboxamido)phenyl)-2H-tetrazol-5-yl)azetidine-1-carboxylate]
3 | 3.4 | 8.19 | COCCNc1ccn2ncc(C(=O)Nc3cc(-n4nnc(C5CN(C(=O)OC)C5)n4)ccc3Cl)c2c1 [Example 113, methyl 3-(2-(4-chloro-3-(5-((2-methoxyethyl)amino)pyrazolo[1,5-a]pyridine-3-carboxamido)phenyl)-2H-tetrazol-5-yl)azetidine-1-carboxylate]
4 | 14.6 | 7.50 | COCCNc1ccn2ncc(C(=O)Nc3cc(-c4nnn(C5CN(C(=O)OC)C5)n4)c(F)cc3C)c2c1 [Example 114, methyl 3-(5-(2-fluoro-5-(5-((2-methoxyethyl)amino)pyrazolo[1,5-a]pyridine-3-carboxamido)-4-methylphenyl)-2H-tetrazol-2-yl)azetidine-1-carboxylate]
5 | 3.9 | 8.64 | COCCNc1ccn2ncc(C(=O)Nc3cc(-c4nnn([C@H]5C[C@@H](C(F)(F)F)C5)n4)ccc3C)c2c1 [Example 119, 5-((2-methoxyethyl)amino)-N-(2-methyl-5-(2-((1s,3s)-3-(trifluoromethyl)cyclobutyl)-2H-tetrazol-5-yl)phenyl)pyrazolo[1,5-a]pyridine-3-carboxamide or 5-((2-methoxyethyl)amino)-N-(2-methyl-5-(2-((1r,3r)-3-(trifluoromethyl)cyclobutyl)-2H-tetrazol-5-yl)phenyl)pyrazolo[1,5-a]pyridine-3-carboxamide]
6 | 35.9 | 8.39 | Cc1ccc(-c2nnn([C@H]3C[C@@H](C(F)(F)F)C3)n2)cc1NC(=O)c1cnn2ccc(NCCO)cc12 [Example 120, 5-((2-hydroxyethyl)amino)-N-(2-methyl-5-(2-((1s,3s)-3-(trifluoromethyl)cyclobutyl)-2H-tetrazol-5-yl)phenyl)pyrazolo[1,5-a]pyridine-3-carboxamide or 5-((2-hydroxyethyl)amino)-N-(2-methyl-5-(2-((1r,3r)-3-(trifluoromethyl)cyclobutyl)-2H-tetrazol-5-yl)phenyl)pyrazolo[1,5-a]pyridine-3-carboxamide]
7 | 12.8 | 9.22 | Cc1ccc(-c2nnn([C@H]3C[C@@H](C(F)(F)F)C3)n2)cc1NC(=O)c1cnn2ccc(N3CCC(C)(O)CC3)cc12 [Example 122, 5-(4-hydroxy-4-methylpiperidin-1-yl)-N-(2-methyl-5-(2-((1s,3s)-3-(trifluoromethyl)cyclobutyl)-2H-tetrazol-5-yl)phenyl)pyrazolo[1,5-a]pyridine-3-carboxamide or 5-(4-hydroxy-4-methylpiperidin-1-yl)-N-(2-methyl-5-(2-((1r,3r)-3-(trifluoromethyl)cyclobutyl)-2H-tetrazol-5-yl)phenyl)pyrazolo[1,5-a]pyridine-3-carboxamide]
8 | 15.9 | 7.99 | CCOC(=O)N1CC(n2nnc(-c3ccc(C)c(NC(=O)c4cnn5ccc(NC)cc45)c3)n2)C1 [Example 126, ethyl 3-(5-(4-methyl-3-(5-(methylamino)pyrazolo[1,5-a]pyridine-3-carboxamido)phenyl)-2H-tetrazol-2-yl)azetidine-1-carboxylate]
9 | 18.9 | 7.58 | COC(=O)N1CC(c2cnn(-c3ccc(C)c(NC(=O)c4cnn5ccc(NCC(F)F)cc45)c3)n2)C1 [Example 139, methyl 3-(2-(3-(5-((2,2-difluoroethyl)amino)pyrazolo[1,5-a]pyridine-3-carboxamido)-4-methylphenyl)-2H-1,2,3-triazol-4-yl)azetidine-1-carboxylate]
10 | 72.2 | 7.62 | COC(=O)N1CC(c2cnn(-c3ccc(C)c(NC(=O)c4cnn5ccc(NCC6COC6)cc45)c3)n2)C1 [Example 140, methyl 3-(2-(4-methyl-3-(5-((oxetan-3-ylmethyl)amino)pyrazolo[1,5-a]pyridine-3-carboxamido)phenyl)-2H-1,2,3-triazol-4-yl)azetidine-1-carboxylate]
11 | 36.4 | 8.12 | COC(=O)N1CC(c2cnn(-c3ccc(C)c(NC(=O)c4cnn5ccc(NC6COC6)cc45)c3)n2)C1 [Example 141, methyl 3-(2-(4-methyl-3-(5-(oxetan-3-ylamino)pyrazolo[1,5-a]pyridine-3-carboxamido)phenyl)-2H-1,2,3-triazol-4-yl)azetidine-1-carboxylate]
12 | 4 | 7.98 | COCCOc1ccc2c(C(=O)Nc3cc(-c4nnn(C5CN(C(=O)OC)C5)n4)ccc3C)cnn2c1 [Example 143, methyl 3-(5-(3-(6-(2-methoxyethoxy)pyrazolo[1,5-a]pyridine-3-carboxamido)-4-methylphenyl)-2H-tetrazol-2-yl)azetidine-1-carboxylate]
13 | 15.4 | 7.05 | COCCOCCNc1ccn2ncc(C(=O)Nc3cc(-c4nnn(C5CN(C(=O)OC)C5)n4)ccc3C)c2c1 [Example 146, methyl 3-(5-(3-(5-((2-(2-methoxyethoxy)ethyl)amino)pyrazolo[1,5-a]pyridine-3-carboxamido)-4-methylphenyl)-2H-tetrazol-2-yl)azetidine-1-carboxylate]
14 | 30.1 | 7.41 | CCOC(=O)N1CC(n2nnc(-c3ccc(C)c(NC(=O)c4cnn5ccc(NCCOC)cc45)c3)n2)C1 [Example 149, ethyl 3-(5-(3-(5-((2-methoxyethyl)amino)pyrazolo[1,5-a]pyridine-3-carboxamido)-4-methylphenyl)-2H-tetrazol-2-yl)azetidine-1-carboxylate]
15 | 4.8 | 8.39 | COCCNc1ccn2ncc(C(=O)Nc3cc(-c4nnn(C5CC(F)C5)n4)ccc3C)c2c1 (stereo not shown) [Example 151, N-(5-(2-(3-fluorocyclobutyl)-2H-tetrazol-5-yl)-2-methylphenyl)-5-((2-methoxyethyl)amino)pyrazolo[1,5-a]pyridine-3-carboxamide]
16 | 37.6 | 7.73 | Cc1ccc(-c2nnn(C3CN(S(C)(=O)=O)C3)n2)cc1NC(=O)c1cnn2ccc(COCC(F)F)cc12 [Example 154, 5-((2,2-difluoroethoxy)methyl)-N-(2-methyl-5-(2-(1-(methylsulfonyl)azetidin-3-yl)-2H-tetrazol-5-yl)phenyl)pyrazolo[1,5-a]pyridine-3-carboxamide]
17 | 5.9 | 8.19 | COCCNc1ccc2c(C(=O)Nc3cc(-c4nnn(C5CN(C(=O)OC)C5)n4)ccc3Cl)cnn2c1 [Example 157, methyl 3-(5-(4-chloro-3-(6-((2-methoxyethyl)amino)pyrazolo[1,5-a]pyridine-3-carboxamido)phenyl)-2H-tetrazol-2-yl)azetidine-1-carboxylate]
18 | 5.3 | 7.74 | COC(=O)N1CC(n2nnc(-c3ccc(C)c(NC(=O)c4cnn5ccc(COCC(F)F)cc45)c3)n2)C1 [Example 162, methyl 3-(5-(3-(5-((2,2-difluoroethoxy)methyl)pyrazolo[1,5-a]pyridine-3-carboxamido)-4-methylphenyl)-2H-tetrazol-2-yl)azetidine-1-carboxylate]
19 | 6.6 | 7.58 | Cc1cc(C#N)c(-c2nnn(C3CC(F)(F)C3)n2)cc1NC(=O)c1cnn2ccc(N3CCOCC3)cc12 [Example 165, N-(4-cyano-5-(2-(3,3-difluorocyclobutyl)-2H-tetrazol-5-yl)-2-methylphenyl)-5-morpholinopyrazolo[1,5-a]pyridine-3-carboxamide]
20 | 3.2 | 8.04 | Cc1cc(Cl)c(-c2nnn(C3CC(F)(F)C3)n2)cc1NC(=O)c1cnn2ccc(N3CCOCC3)cc12 [Example 168, N-(4-chloro-5-(2-(3,3-difluorocyclobutyl)-2H-tetrazol-5-yl)-2-methylphenyl)-5-morpholinopyrazolo[1,5-a]pyridine-3-carboxamide]
21 | 5.5 | 7.45 | Cc1ccc(-c2nnn(C3CN(S(C)(=O)=O)C3)n2)cc1NC(=O)c1cnn2ccccc12 [Example 172, N-(2-methyl-5-(2-(1-(methylsulfonyl)azetidin-3-yl)-2H-tetrazol-5-yl)phenyl)pyrazolo[1,5-a]pyridine-3-carboxamide]

Row | Structure (SMILES) | efflux ratio at 2 h, 1 µM [1] | pIC50 [2]
22 | COCCNc1cc2c(C(=O)Nc3cc(-c4nnn(C5CN(C(=O)OC)C5)n4)ccc3C)cnn2cc1Cl [Example 145, methyl 3-(5-(3-(6-chloro-5-((2-methoxyethyl)amino)pyrazolo[1,5-a]pyridine-3-carboxamido)-4-methylphenyl)-2H-tetrazol-2-yl)azetidine-1-carboxylate] | 6.4 | 6.80
23 | COCCNc1cc2c(C(=O)Nc3cc(-c4nnn(C5CN(C(=O)OC)C5)n4)ccc3C)cnn2cc1F [Example 171, methyl 3-(5-(3-(6-fluoro-5-((2-methoxyethyl)amino)pyrazolo[1,5-a]pyridine-3-carboxamido)-4-methylphenyl)-2H-tetrazol-2-yl)azetidine-1-carboxylate] | 6 | 7.46
